In US9795140B2, “Molecules having pesticidal utility, and intermediates, compositions, and processes, related thereto” (priority 2015, dated 2017):

Assays:
Format in all cases: in vivo
[1] = test system: Beet Armyworm (Spodoptera exigua, LAPHEG); test: Bioassay on Beet Armyworm (BAW), 128-well diet tray assay; details: 168 h, 50 μg/cm^2 on artificial diet, second instar larvae, 25° C., five to seven days, average of eight wells, read-out: BAW % Control (or Mortality) rating
Method: (§1) Certain molecules disclosed in this document were tested against BAW and CL using procedures described in the following examples. In the reporting of the results, the “BAW & CL Rating Table” was used (See Table Section).
Bioassays on BAW were conducted using a 128-well diet tray assay. One to five second instar BAW larvae were placed in each well (3 mL) of the diet tray that had been previously filled with approximately 1.5 mL of artificial diet to which 50 μg/cm^2 of the test molecule (dissolved in 50 μL of 90:10 acetone-water mixture) had been applied (to each of eight wells) and then allowed to dry. Trays were covered with a clear self-adhesive cover, vented to allow gas exchange, and held at 25° C., 14:10 light-dark for five to seven days. Percent mortality was recorded for the larvae in each well; activity in the eight wells was then averaged. The results are indicated in the table entitled “Table ABC: Biological Results” (See Table Section).

[2] = test system: Cabbage Looper (Trichoplusia ni, TRIPNI); test: Bioassay on Cabbage Looper (CL), 128-well diet tray assay; details: 168 h, 50 μg/cm^2 on artificial diet, second instar larvae, 25° C., five to seven days, average of eight wells, read-out: CL % Control (or Mortality) rating
Method: as §1
Bioassays on CL were conducted using a 128-well diet tray assay, one to five second instar CL larvae were placed in each well (3 mL) of the diet tray that had been previously filled with 1 mL of artificial diet to which 50 μg/cm^2 of the test molecule (dissolved in 50 μL of 90:10 acetone-water mixture) had been applied (to each of eight wells) and then allowed to dry. Trays were covered with a clear self-adhesive cover, vented to allow gas exchange, and held at 25° C., 14:10 light-dark for five to seven days. Percent mortality was recorded for the larvae in each well; activity in the eight wells was then averaged. The results are indicated in the table entitled “Table ABC: Biological Results” (See Table Section).

[3] = test system: Yellow Fever Mosquito (Aedes aegypti, AEDSAE); test: Bioassay on Yellow Fever Mosquito (YFM) larvae, 96-well plate; details: about 1 day-old larvae, room temperature, 3 days, scored on mortality
Method: Certain molecules disclosed in this document were tested against YFM using procedures described in the following paragraph. In the reporting of the results, the “GPA & YFM Rating Table” was used (See Table Section).
Master plates containing 400 μg of a molecule dissolved in 100 μL of dimethyl sulfoxide (DMSO) (equivalent to a 4000 ppm solution) are used. A master plate of assembled molecules contains 15 μL per well. To this plate, 135 μL of a 90:10 water/acetone mixture is added to each well. A robot is programmed to dispense 15 μL aspirations from the master plate into an empty 96-well shallow plate (“daughter” plate). There are 6 reps (“daughter” plates) created per master. The created “daughter” plates are then immediately infested with YFM larvae.
The day before plates are to be treated, mosquito eggs are placed in Millipore water containing liver powder to begin hatching (4 g. into 400 mL). After the “daughter” plates are created using the robot, they are infested with 220 μL of the liver powder/larval mosquito mixture (about 1 day-old larvae). After plates are infested with mosquito larvae, a non-evaporative lid is used to cover the plate to reduce drying. Plates are held at room temperature for 3 days prior to grading. After 3 days, each well is observed and scored based on mortality. The results are indicated in the table entitled “Table ABC: Biological Results” (See Table Section).

Row | Compound | mortality at 50 µg/cm2 [1] [%] | mortality at 50 µg/cm2 [2] [%] | YFM % Control (or Mortality) rating [3]
1 | CNC(=O)c1cc(NC(=O)[C@H]2[C@H](c3cc(Cl)cc(Cl)c3)C2(Cl)Cl)ccc1Cl (relative stereo) [F1, trans-2-chloro-5-(2,2-dichloro-3-(3,5-dichlorophenyl)cyclopropane-1-carboxamido)-N-methylbenzamide] | 50 to 100 | 50 to 100 | A (80-100)
2 | O=C(NCC(F)(F)F)c1cccc(NC(=O)[C@H]2[C@H](c3cc(Cl)cc(Cl)c3)C2(Cl)Cl)c1 (relative stereo) [F3, trans-3-(2,2-Dichloro-3-(3,5-dichlorophenyl)cyclopropane-1-carboxamido)-N-(2,2,2-trifluoroethyl)benzamide] | 50 to 100 | 50 to 100 | A (80-100)
3 | O=C(CNC(=O)c1cc(NC(=O)[C@H]2[C@H](c3cc(Cl)cc(Cl)c3)C2(Cl)Cl)ccc1Cl)NCC(F)(F)F (relative stereo) [F5, trans-2-Chloro-5-(2,2-dichloro-3-(3,5-dichlorophenyl)cyclopropane-1-carboxamido)-N-(2-oxo-2-((2,2,2-trifluoroethyl)amino)ethyl)benzamide] | 50 to 100 | 50 to 100 | 
4 | O=C(NCc1cccnc1)c1cc(NC(=O)[C@H]2[C@H](c3cc(Cl)c(Cl)c(Cl)c3)C2(Cl)Cl)ccc1Cl (relative stereo) [F7, trans-2-Chloro-5-(2,2-dichloro-3-(3,4,5-trichlorophenyl)cyclopropane-1-carboxamido)-N-(pyridin-3-ylmethyl)benzamide] | 50 to 100 | 50 to 100 | A (80-100)
5 | O=C(NCc1ccccn1)c1cc(NC(=O)[C@H]2[C@H](c3cc(Cl)cc(Cl)c3)C2(Cl)Cl)ccc1Cl (relative stereo) [F8, trans-2-Chloro-5-(2,2-dichloro-3-(3,5-dichlorophenyl)cyclopropane-1-carboxamido)-N-(pyridin-2-ylmethyl)benzamide] | 50 to 100 | 50 to 100 | 
6 | O=C(NCc1ccccn1)c1cc(NC(=O)[C@H]2[C@H](c3cc(Cl)c(Cl)c(Cl)c3)C2(Cl)Cl)ccc1Cl (relative stereo) [F9, trans-2-Chloro-5-(2,2-dichloro-3-(3,4,5-trichlorophenyl)cyclopropane-1-carboxamido)-N-(pyridin-2-ylmethyl)benzamide] | 50 to 100 | 50 to 100 | 
7 | C=CCONC(=O)c1cc(NC(=O)[C@H]2[C@H](c3cc(Cl)cc(Cl)c3)C2(Cl)Cl)ccc1Cl (relative stereo) [F10, trans-N-(Allyloxy)-2-chloro-5-(2,2-dichloro-3-(3,5-dichlorophenyl)cyclopropane-1-carboxamido)benzamide] | 50 to 100 | 50 to 100 | 
8 | C=CCONC(=O)c1cc(NC(=O)[C@H]2[C@H](c3cc(Cl)c(Cl)c(Cl)c3)C2(Cl)Cl)ccc1Cl (relative stereo) [F11, trans-N-(Allyloxy)-2-chloro-5-(2,2-dichloro-3-(3,4,5-trichlorophenyl)cyclopropane-1-carboxamido)benzamide] | 50 to 100 | 50 to 100 | 
9 | CN(C)CCCCNC(=O)c1cc(NC(=O)[C@H]2[C@H](c3cc(Cl)cc(Cl)c3)C2(Cl)Cl)ccc1Cl (relative stereo) [F50, trans-2-Chloro-5-(2,2-dichloro-3-(3,5-dichlorophenyl)cyclopropane-1-carboxamido)-N-(4-(dimethylamino)butyl)benzamide] | 0 | 50 to 100 | 
10 | O=C(NCCCl)c1cc(NC(=O)[C@H]2[C@H](c3cc(Cl)cc(Cl)c3)C2(Cl)Cl)ccc1Cl (relative stereo) [F51, trans-2-Chloro-N-(2-chloroethyl)-5-(2,2-dichloro-3-(3,5-dichlorophenyl)cyclopropane-1-carboxamido)benzamide] | 50 to 100 | 50 to 100 | B (More than 0-Less than 80)
11 | CSCCNC(=O)c1cc(NC(=O)[C@H]2[C@H](c3cc(Cl)cc(Cl)c3)C2(Cl)Cl)ccc1Cl (relative stereo) [F52, trans-2-Chloro-5-(2,2-dichloro-3-(3,5-dichlorophenyl)cyclopropane-1-carboxamido)-N-(2-(methylthio)ethyl)benzamide] | 50 to 100 | 50 to 100 | B (More than 0-Less than 80)
12 | COCCNC(=O)c1cc(NC(=O)[C@H]2[C@H](c3cc(Cl)cc(Cl)c3)C2(Cl)Cl)ccc1Cl (relative stereo) [F53, trans-2-Chloro-5-(2,2-dichloro-3-(3,5-dichlorophenyl)cyclopropane-1-carboxamido)-N-(2-methoxyethyl)benzamide] | 50 to 100 | 50 to 100 | B (More than 0-Less than 80)
13 | CCOCCNC(=O)c1cc(NC(=O)[C@H]2[C@H](c3cc(Cl)cc(Cl)c3)C2(Cl)Cl)ccc1Cl (relative stereo) [F54, trans-2-Chloro-5-(2,2-dichloro-3-(3,5-dichlorophenyl)cyclopropane-1-carboxamido)-N-(2-ethoxyethyl)benzamide] | 50 to 100 | 50 to 100 | B (More than 0-Less than 80)
14 | C#CCN(C)C(=O)c1cc(NC(=O)[C@H]2[C@H](c3cc(Cl)cc(Cl)c3)C2(Cl)Cl)ccc1Cl (relative stereo) [F65, trans-2-Chloro-5-(2,2-dichloro-3-(3,5-dichlorophenyl)cyclopropane-1-carboxamido)-N-methyl-N-(prop-2-yn-1-yl)benzamide] | 50 to 100 | 50 to 100 | 
15 | CN(CC#N)C(=O)c1cc(NC(=O)[C@H]2[C@H](c3cc(Cl)cc(Cl)c3)C2(Cl)Cl)ccc1Cl (relative stereo) [F66, trans-2-Chloro-N-(cyanomethyl)-5-(2,2-dichloro-3-(3,5-dichlorophenyl)cyclopropane-1-carboxamido)-N-methylbenzamide] | 50 to 100 | 50 to 100 | 
16 | C[S+]([O-])CCNC(=O)c1cc(NC(=O)[C@H]2[C@H](c3cc(Cl)cc(Cl)c3)C2(Cl)Cl)ccc1Cl (relative stereo) [F74, trans-2-chloro-5-(2,2-dichloro-3-(3,5-dichlorophenyl)cyclopropane-1-carboxamido)-N-(2-(methylsulfinyl)ethyl)benzamide] | 50 to 100 | 50 to 100 | 
17 | O=C(NCC(F)(F)F)c1cc(NC(=O)[C@H]2[C@H](c3cc(Cl)cc(Cl)c3)C2(Cl)Cl)cc(Cl)c1Cl (relative stereo) [F93, trans-2,3-Dichloro-5-(2,2-dichloro-3-(3,5-dichlorophenyl)cyclopropane-1-carboxamido)-N-(2,2,2-trifluoroethyl)benzamide] | 50 to 100 | 50 to 100 | 
18 | O=C(NCC(F)(F)F)c1cc(NC(=O)C2C(c3cc(F)c(F)c(F)c3)C2(Cl)Cl)ccc1Cl (stereo not drawn) [F127, 2-Chloro-5-cis-(2,2-dichloro-3-(3,4,5-trifluorophenyl)cyclopropane-1-carboxamido)-N-(2,2,2-trifluoroethyl)benzamide] |  |  | A (80-100)
